Measurements from patent US4011138A, “Process for the preparation of cholesterol esterase” (Kyowa Hakko Kogyo Co., Ltd., priority 1974, dated 1977).

These compounds were tested on Pseudomonas fluorescens KY 3955 (FERM-P No. 2611) ATCC 31156 (assay: Cholesterol esterase activity of culture filtrates with fatty acids or fatty acid esters added to the fermentation medium). Conditions: additive at 5 g/l in soybean meal fermentation medium, 30° C for 24 hours; None = 20.
Format: cell-based

| Compound | Activity (cholesterol esterase activity of culture filtrate) |
| --- | --- |
| CCCCC/C=C\C/C=C\CCCCCCCC(=O)O [linoleic acid] | 310 unit/l |
| CCCCCCCC/C=C\CCCCCCCC(=O)O [oleic acid] | 170 unit/l |
| CCCCCCCCCCCCCCCCCC(=O)O [stearic acid] | 230 unit/l |
| CCCCC/C=C\C/C=C\CCCCCCCC(=O)OCC(COC(=O)CCCCCCC/C=C\C/C=C\CCCCC)OC(=O)CCCCCCC/C=C\C/C=C\CCCCC [trilinolein] | 250 unit/l |
| CCCCCCCC/C=C\CCCCCCCC(=O)OCC(COC(=O)CCCCCCC/C=C\CCCCCCCC)OC(=O)CCCCCCC/C=C\CCCCCCCC [triolein] | 200 unit/l |

What follows are compounds tested on cholesterol esterase (assay: Substrate specificity: relative activity of cholesterol esterase on cholesterol esters). Conditions: activity on cholesterol linoleate defined as 100; 37° C, 30 minutes, pH 7.5.
Format: biochemical, Pseudomonas fluorescens
Procedure: The determination of the enzyme activity on cholesterol linoleate is carried out by the following method.
A mixture having the following composition is prepared and shaken at 37° C for 30 minutes. […]
During the above-described operation, the substrate cholesterol linoleate is hydrolyzed by the action of cholesterol esterase into cholesterol and linoleic acid, and subsequently the formed cholesterol is oxidized to cholestenone by the action of cholesterol oxidase. After 30 minutes of shaking, the mixture is immediately subjected to the determination of residual unreacted cholesterol linoleate by Zurkowsky's method [Clinical Chemistry 10, 451 (1964)]. Then, the amount of the reacted cholesterol linoleate is calculated. The enzyme activity is expressed by "unit." A "unit" of enzyme activity is defined as that amount of enzyme which will decompose 1 μmole of cholesterol linoleate in 1 minute under the above-described conditions. The enzyme activities on other cholesterol esters are variable depending upon the kind of substrates and are determined in the similar manner.

| Compound | Relative activity |
| --- | --- |
| CC(=O)O[C@H]1CC[C@@]2(C)C(=CC[C@H]3[C@@H]4CC[C@H]([C@H](C)CCCC(C)C)[C@@]4(C)CC[C@@H]32)C1 [Cholesterol acetate] | 80 |
| CCCCC/C=C\C/C=C\CCCCCCCC(=O)O[C@H]1CC[C@@]2(C)C(=CC[C@H]3[C@@H]4CC[C@H]([C@H](C)CCCC(C)C)[C@@]4(C)CC[C@@H]32)C1 [Cholesterol linoleate] | 100 |
| CCCCCCCC/C=C\CCCCCCCC(=O)O[C@H]1CC[C@@]2(C)C(=CC[C@H]3[C@@H]4CC[C@H]([C@H](C)CCCC(C)C)[C@@]4(C)CC[C@@H]32)C1 [Cholesterol oleate] | 93 |
| CCCCCCCCCCCCCCCC(=O)O[C@H]1CC[C@@]2(C)C(=CC[C@H]3[C@@H]4CC[C@H]([C@H](C)CCCC(C)C)[C@@]4(C)CC[C@@H]32)C1 [Cholesterol palmitate] | 26 |
| CCCCCCCCCCCCCCCCCC(=O)O[C@H]1CC[C@@]2(C)C(=CC[C@H]3[C@@H]4CC[C@H]([C@H](C)CCCC(C)C)[C@@]4(C)CC[C@@H]32)C1 [Cholesterol stearate] | 58 |

These compounds were tested on cholesterol esterase (assay: Inhibitory effects of various substances on the enzyme activity). Conditions: not given.
Format: biochemical, Pseudomonas fluorescens

| Compound | activity of the enzyme inhibited by heavy metal ions |
| --- | --- |
| O=[N+]([O-])[O-].[Ag+] [AgNO3] | inhibited |
| O=S(=O)([O-])[O-].[Cu+2] [CuSO4] | inhibited |
| [Cl][Hg][Cl] [HgCl2] | inhibited |

Same assay, conditions: 0.1 ml of 4 mM solution of the substance added, kept at 37° C for 15 minutes; substrate cholesterol linoleate, 37° C for 10 minutes; ratio of residual to initial cholesterol linoleate

| Compound | Inhibition ratio (%) |
| --- | --- |
| O=C(O)CN(CCN(CC(=O)O)CC(=O)O)CC(=O)O [Ethylenediaminetetraacetic acid] | 0% |
| c1cnc2c(c1)ccc1cccnc12 [o-Phenanthroline] | 0% |

Same assay, conditions: cholesterol esterase, 4000 µM

| Compound | Inhibition ratio (%) |
| --- | --- |
| c1ccc(-c2ccccn2)nc1 [2,2'-Dipyridyl] | 0% |
| O=[N+]([O-])[O-].[Ag+] [AgNO3] | 20% |
| [Ba+2].[Cl-].[Cl-] [BaCl2] | 0% |
| [Ca+2].[Cl-].[Cl-] [CaCl2] | 0% |
| O=S(=O)([O-])[O-].[Cu+2] [CuSO4] | 100% |
| O=S(=O)([O-])[O-].[Fe+2] [FeSO4] | 0% |
| [Cl][Hg][Cl] [HgCl2] | 100% |
| [Cl][Mn][Cl] [MnCl2] | 0% |
| [Cl-].[Cl-].[Zn+2] [ZnCl2] | 0% |
| O=C(O)c1cc[c]([Hg][Cl])cc1 [p-Chloromercuri benzoic acid (p-CMB), p-Chloromercuri benzoic acid] | 0% |
